How the values were obtained:
Parameters in all cases: key: R = resistant; S = susceptible; BLAC = Beta-lactamase positive
S. epidermidis (R) = assay: Susceptibility test of Gram positive Bacteria; assay type: cell-based
S. epidermidis (S) = assay: Susceptibility test of Gram positive Bacteria; assay type: cell-based
S. aureus (S) = assay: Susceptibility test of Gram positive Bacteria; assay type: cell-based
MRSA = assay: Susceptibility test of Gram positive Bacteria; assay type: cell-based, Methicillin-resistant S. aureus
E. coli (R) = assay: Susceptibility test of Gram negative Bacteria; assay type: cell-based
E. coli (S) = assay: Susceptibility test of Gram negative Bacteria; assay type: cell-based
A. baumannii (R) = assay: Susceptibility test of Gram negative Bacteria; assay type: cell-based
A. baumannii (S) = assay: Susceptibility test of Gram negative Bacteria; assay type: cell-based

Compound	Susceptibility test (S. epidermidis (R))	Susceptibility test (S. epidermidis (S))	Susceptibility test (S. aureus (S))	Susceptibility test (MRSA)	Susceptibility test (E. coli (R))	Susceptibility test (E. coli (S))	Susceptibility test (A. baumannii (R))	Susceptibility test (A. baumannii (S))
CC1(C)S[C@@H]2[C@H](NC(=O)[C@H](N)c3ccccc3)C(=O)N2[C@H]1C(=O)O [Ampicillin]	R	S	BLAC	BLAC	R	S	R	
CO/N=C(\C(=O)N[C@@H]1C(=O)N2C(C(=O)O)=C(COC(C)=O)CS[C@H]12)c1csc(N)n1 [Cefotaxime]	R						R	S
O=C(O)c1cn(C2CC2)c2cc(N3CCNCC3)c(F)cc2c1=O [Ciprofloxacin]	R	S	S	S				
C[C@H]1[C@H](NC(=O)/C(=N\OC(C)(C)C(=O)O)c2csc(N)n2)C(=O)N1S(=O)(=O)O [Aztreonam]					R	S	R	
Amoxicillin-Clavulanate	R	S	S	R			R	
O=C1CN(/N=C/c2ccc([N+](=O)[O-])o2)C(=O)N1 [Nitrofurantoin]							R	
CC[C@H]1OC(=O)[C@H](C)[C@@H](O[C@H]2C[C@@](C)(OC)[C@@H](O)[C@H](C)O2)[C@H](C)[C@@H](O[C@@H]2O[C@H](C)C[C@H](N(C)C)[C@H]2O)[C@](C)(O)C[C@@H](C)C(=O)[C@H](C)[C@@H](O)[C@]1(C)O [Erythromycin]	R	S	R					
CC1(C)S[C@@H]2[C@H](NC(=O)[C@H](N)c3ccc(O)cc3)C(=O)N2[C@H]1C(=O)O [Amoxicillin]					R	S	R	S
Cc1onc(-c2ccccc2)c1C(=O)N[C@@H]1C(=O)N2[C@@H]1SC(C)(C)[C@@H]2C(=O)O [Oxacillin]	R	S	S	R				
C=CC1=C(C(=O)O)N2C(=O)[C@@H](NC(=O)/C(=N\OCC(=O)O)c3csc(N)n3)[C@H]2SC1 [Cefixime]					R	S	R	
C/C(=C\C(=O)OCCCCCCCCC(=O)O)C[C@@H]1OC[C@H](C[C@@H]2O[C@H]2[C@@H](C)[C@H](C)O)[C@@H](O)[C@H]1O [Mupirocin]	R	S	S	S				
CC(=O)OCC1=C(C(=O)O)N2C(=O)[C@@H](NC(=O)Cc3cccs3)[C@H]2SC1 [Cefalotin]					R	S		
Trimethoprim-Sulfamethoxazole	R	S	S	S				
C[C@@H](O)[C@H]1C(=O)N2C(C(=O)O)=C(SCCN=CN)C[C@H]12 [Imipenem]	R	S	S	R				
CO[C@@]1(NC(=O)Cc2cccs2)C(=O)N2C(C(=O)O)=C(COC(N)=O)CS[C@@H]21 [Cefoxitin]	R	S	Negative.	Positive.			R	
CO/N=C(\C(=O)N[C@@H]1C(=O)N2C(C(=O)O)=C(COC(N)=O)CS[C@H]12)c1ccco1 [Cefuroxime]					R		R	S
Gentamycin	R	S	S	S				
CC1(C)S[C@@H]2[C@H](NC(=O)Cc3ccccc3)C(=O)N2[C@H]1C(=O)O [Penicillin G]	R	S	BLAC	BLAC				
CCC[C@@H]1C[C@@H](C(=O)N[C@@H]([C@H]2O[C@H](SC)[C@H](O)[C@@H](O)[C@H]2O)[C@H](C)Cl)N(C)C1 [Clindamycin]	R	S	S					
CO/N=C(\C(=O)N[C@@H]1C(=O)N2C(C(=O)O)=C(CSc3nc(=O)c(O)nn3C)CS[C@H]12)c1csc(N)n1 [Ciftriaxone]							R	

From patent US11806790B2, “Biosynthesis of metal nanoparticles” (KING SAUD UNIVERSITY, priority 2019, dated 2023)
